Measured values: patent publication US11352382B2, “Mito-lonidamine, compositions and methods of use” (THE MEDICAL COLLEGE OF WISCONSIN, INC., priority 2018, dated 2022)

System: A/J mice
Test: 8-week toxicology study (maximum tolerated dose, Modified Irwin Screen)
Format: in vivo, mouse
Source text: Maximum tolerated dose (MTD) of Mito-LON. We conducted an 8-week toxicology study to evaluate possible toxicity of Mito-LON, especially on neural and muscle cells using a Modified Irwin Screen, developed as a comprehensive observational battery to broadly screen for central nervous system (CNS) effects of agents. Modifications of this test are extensively used in the pharmaceutical industry and in academic research to identify changes in neurological function as a result of agent intoxication, neurotoxicity, or genetic manipulation. The screen used here employs 35 distinct measurements to assess sensorimotor, neurological, and autonomic nervous system function^78. The effective dose (ED) of Mito-LON is designated as 7.5 μmol/kg based on our preliminary data (FIGS. 24 & 25).

For `O=C(NCCCCCCCCCC[P+](c1ccccc1)(c1ccccc1)c1ccccc1)c1nn(Cc2ccc(Cl)cc2Cl)c2ccccc12` [Mito-LON, Mito10-lonidamine], the toxicity overall (doses up to 50× ED) was “did not show any toxicity”, the “body weights (and organ weights) and 35 Modified Irwin Screen metrics versus control” value (up to 50× ED, A/J mice, 8-weeks treatment) was “didn't observe any significant differences” and the “toxic effects in neural tissue and muscles by histopathology, liver function (serum AST and ALT)” value (up to 50× ED, A/J mice, 8 weeks) was “No toxic effects”.
